The assay deals with SK-MEL-5 TRPM1-promoter luciferase reporter, 24 h. Nature of the assay: reducers of TRPM1 reporter luminescence, concentration series – cell-based, SK-MEL-5, cherry-picked, set 4, MITF inhibitor project, dose response (AID 493102).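 Note: actives lower the luciferase signal so the potency reflects inhibition of reporter expression.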

The AC50 is the midpoint of the concentration-response curve, whichever way the signal moves.

Take `Cc1cc(NCCCn2ccnc2)n2ncc(-c3ccccc3)c2n1`: the AC50 was 11 µM.

On to `Nc1ccc(-c2nc3ccc(C(=O)O)cc3s2)cc1`, for which the AC50 was 0.866 µM.

Regarding `O=C(CCCc1ccccc1)Nc1cccc(C(=O)O)c1`, the AC50 is 4.42 µM. For `CCOc1ccc(C(=O)Nc2cccc(C(=O)O)c2C)cc1Cl`, the AC50 was 8.56 µM. On to `Cc1ccc(C(=O)N/C(=C\c2ccc(-c3ccc(Br)cc3)o2)C(=O)NCCCN(C)C)cc1`, for which the concentration at half-maximal activity (AC50) is 6.84 µM. Take `CCOC(=O)N1C(=O)[C@@](CC)(c2ccccc2)N1C(=O)OCC`: the AC50 is 12.5 µM. For `Cc1cc(C(=O)N/N=C/c2ccc([N+](=O)[O-])o2)c(C)o1` the value was 4.79 µM. For `COC(=O)C1=C(C)N(Cc2ccccc2)C(=NCc2ccccc2)N[C@H]1c1ccccc1` the value was 18 µM. With `COc1ccc(/C=N/Nc2cc(C)nc(-n3nc(C)cc3C)n2)c(OC)c1`, the concentration at half-maximal activity (AC50) is 10.4 µM. The same measure for `O=C(CCl)N1c2ccccc2SCC1c1ccccc1` (configuration not stated): 4.2 µM; for `CC1CCN(CC2C(=O)O[C@@H]3C[C@@]4(C)CCC[C@H](C)C4=C[C@H]23)CC(C)(C)C1` (some centres not stated): 16.1 µM; for `Cc1ccc(NC(=O)/C=C/c2ccc([N+](=O)[O-])s2)c(C)c1`: 4.64 µM. For `O=C(/C=C/c1ccc(Cl)cc1)c1ccc([N+](=O)[O-])o1` the value was 5.32 µM; for `N=c1n(CC(=O)c2ccc([N+](=O)[O-])cc2)c2ccccc2n1Cc1ccccc1Cl`, 4.03 µM; for `CCOC(=O)COc1ccc2ccccc2c1/C=C/[N+](=O)[O-]`, 8.17 µM. For `O=C(NCc1ccco1)c1nc2c(nnn2Cc2ccccc2Cl)c(=O)[nH]1` the value was 14.4 µM. As for `O=C(Cn1ncc(Cl)c(Cl)c1=O)N1CCOCC1`, the AC50 is 9.82 µM. For `CCN(CC)S(=O)(=O)c1ccc(NC(=O)c2cccnc2Cl)c(NC(=O)c2cccnc2Cl)c1` the value was 7.03 µM. For `N#CCc1ccc(NC(=O)/C=C/c2ccc([N+](=O)[O-])o2)cc1` the value was 4.97 µM; for `N#Cc1cc2c(nc1SC1CC(=O)N(c3ccccc3)C1=O)CCC2` (configuration not stated), 1.78 µM; for `CN(C)c1ccc(/C=C(\C#N)c2ccccn2)cc1`, 6.32 µM. For `C/C(=C\c1ccc(N(C)C)cc1)[N+](=O)[O-]` the value was 13.1 µM; for `CCN1CCN(C2=C(NS(=O)(=O)c3ccc(C)cc3)C(=O)c3ccccc3C2=O)CC1`, 4.18 µM; for `O=C(Nc1ccccc1)NN(C(=O)CCl)c1ccccc1`, 8.5 µM. `Cc1ccc(-c2nc(C(=O)NCCCN(C)C)cc3c2[nH]c2ccccc23)cc1`: the AC50 is 11.2 µM. For `COCCN(CC(=O)NC1CCCCC1)C(=O)/C=C/C(=O)c1ccc(OC)cc1O` the value was 5.48 µM; for `CC1=CC2/C=C(\C)CCC(O)C(O)/C=C/C(=O)C23C(=O)NC(CC(C)C)C3C1C` (configuration not stated), 6.58 µM; for `COc1cccc(CNCCc2c[nH]c3ccccc23)c1OCc1ccccc1`, 14.4 µM. For `Cc1ccc(C2=NN(C(=O)CCl)C(c3cccs3)C2)o1` (configuration not stated) the value was 6.1 µM.

On to `CN(C)c1nc(-c2ccccn2)nnc1-c1ccccc1`, for which the AC50 was 6.17 µM. As to `COc1cc(C(=O)N/N=C(\c2ccccc2)c2ccccn2)cc(OC)c1OC`, the AC50 is 13.8 µM. The same measure for `CNC(=O)COC(=O)c1ccccc1C(=O)c1ccc(Cl)c([N+](=O)[O-])c1`: 9.77 µM; for `Cc1c(C#N)c(NC(=O)CCl)n(Cc2ccccc2)c1C`: 11.2 µM. For `O=C(O)c1ccccc1C(=O)Nc1ccc(Oc2cccc3ccccc23)cc1` the value was 18.8 µM. The same measure for `CC(=O)c1c(C)oc2c1C(=O)c1ccccc1C2=O`: 6.68 µM; for `COc1ccc(CCn2c(=S)[nH]c3cc(C(=O)NCc4ccco4)ccc3c2=O)cc1OC`: 17.7 µM. Regarding `CS(=O)(=O)N1CCN(c2ccc(NC(=O)c3ccc([N+](=O)[O-])o3)cc2)CC1`, the half-maximal activity concentration (AC50) is 4.92 µM. For `O=C1C(Cl)=C(N2CCN(c3ccccc3[N+](=O)[O-])CC2)C(=O)c2ccccc21` the value was 3.59 µM; for `Cc1ccc(NC(=O)C2CCN(S(=O)(=O)c3c(C)noc3/C=C/c3ccco3)CC2)nc1`, 5.56 µM; for `Cc1ccccc1NC(=O)Cc1nc(COC(=O)c2ccc(S(C)(=O)=O)c([N+](=O)[O-])c2)cs1`, 12.8 µM.

With `O=C(CCl)Nc1cn(-c2ccccc2)nc1-c1ccccc1`, the concentration at half-maximal activity (AC50) is 14.5 µM. Take `CN(C)c1cc[n+](CC(=O)c2ccc(-c3ccccc3)cc2)cc1`: the concentration at half-maximal activity (AC50) is 2.6 µM. The same measure for `CC(=O)SC(C[N+](=O)[O-])c1cn(C(C)=O)c2ccccc12` (configuration not stated): 3.54 µM; for `Cc1ccc(-c2c[n+](Cc3cccc(Cl)c3)c3n2CCC3)cc1`: 12.2 µM; for `CCN1c2ccccc2NC2N=C(OC)C(c3ccccc3)C21` (configuration not stated): 7.52 µM. For `O=C(N/N=C/c1ccc([N+](=O)[O-])o1)c1cc2ccccc2o1` the value was 5.99 µM; for `Cc1cccc(NC2=C(NC(=O)c3ccccc3)C(=O)c3ccccc3C2=O)c1`, 9.99 µM; for `CC1CCN(CC(CS(=O)(=O)c2ccc([N+](=O)[O-])cc2)N2CCC(C)CC2)CC1` (configuration not stated), 6.62 µM. For `CCCCCCCNC(=O)C1(CC2CC(c3ccc(Cl)cc3)=NO2)CCNCC1` (configuration not stated) the value was 14 µM; for `CCOC(=O)Cn1c(=NC(=O)c2ccc([N+](=O)[O-])s2)sc2ccccc21`, 3.5 µM. On to `CN(C)C1CCN(Cc2cc(COCc3ccccc3)c3cccnc3c2O)C1` (configuration not stated), for which the AC50 was 9.99 µM. For `Cc1cc(C)cc(NS(=O)(=O)c2ccc3c(c2)c(=O)n(C)c(=O)n3C)c1` the value was 4.67 µM; for `COc1cc2c(cc1OC)C(C)N(S(=O)(=O)c1cnc(Cl)c(Cl)c1)CC2` (configuration not stated), 12.1 µM. Take `Cc1c(C#N)c(O)n(CCO)c(=O)c1N=Nc1ccc2c(c1)COC2=O`: the AC50 is 9.69 µM. The same measure for `COc1ccc2cc3cc(C(=O)NCCc4ccc(OC)c(OC)c4)oc3nc2c1`: 16.2 µM; for `O=C(Nc1nc(-c2ccccn2)cs1)c1ccc([N+](=O)[O-])o1`: 10.8 µM. For `CCC(=O)OCCNc1cc(Sc2nccn2C)c2nonc2c1[N+](=O)[O-]` the value was 7.16 µM. The same measure for `Cc1ccc(S(=O)(=O)CC(CN2CCCCC2)N2CCCCC2)cc1` (configuration not stated): 8.1 µM; for `O=[N+]([O-])c1ccc(Sc2cc[n+]([O-])c3ccccc23)c([N+](=O)[O-])c1`: 5.92 µM. As to `Cc1cc(-n2c(SCC(=O)NCCC3=CCCCC3)nc3n[nH]c(C)c3c2=N)ccc1Cl`, the AC50 is 17.1 µM. For `C=CCn1c(C)cc(C2=NNC(=NC(C)(C)C)SC2)c1C` the value was 4.09 µM; for `COc1ccc(C(=O)C(CN2CCOCC2)c2ccccc2)cc1` (configuration not stated), 7.29 µM; for `CC1CCC(C(C)C)C(OC(=O)Cn2c(-c3ccc(F)cc3)[n+](C)c3ccccc32)C1` (configuration not stated), 5.57 µM. On to `CCS(=O)(=O)c1ccc(N=Nc2ccc(O)c3ncccc23)c(OC)c1`, for which the AC50 is 9.23 µM. The same measure for `O=C(NCc1cccs1)c1nc2c(nnn2Cc2ccccc2Cl)c(=O)[nH]1`: 6.66 µM; for `O=C(Nc1nc(-c2ccccn2)cs1)c1ccccc1-n1cnnn1`: 6.96 µM; for `Cc1ccc(C(=O)N/N=C/c2ccc([N+](=O)[O-])s2)cc1`: 2.2 µM. For `COCCCn1[nH]c2c3c(ccc2c1=O)C(=O)c1ccccc1C3=O` the value was 8.86 µM; for `CC(C)(C)c1ccc(-c2cc(N)n[nH]2)cc1`, 0.511 µM; for `BrC(=C\c1ccccc1)/C=N/n1cnnc1`, 7.26 µM.

In the case of `CCN(CC)S(=O)(=O)c1ccc(N2CCCC2)c(NC(=O)c2ccc([N+](=O)[O-])o2)c1`, the AC50 is 3.18 µM. The same measure for `O=C(COC(=O)c1ccc(F)c([N+](=O)[O-])c1)NC(=O)NCc1ccccc1`: 13.6 µM; for `N#C/C(=C(/O)c1ccc([N+](=O)[O-])o1)c1nc2ccccc2[nH]1`: 3.8 µM. The same measure for `CCN(Cc1ccccc1)c1ccc(/C=N/N=C(N)N)cc1`: 6.37 µM; for `N#Cc1c(NC(=O)CSc2ncn[nH]2)sc2c1CCCCC2`: 0.371 µM; for `Cc1cc(C(C)(C)C)cc(C)c1Cn1c2[n+](c3ccc(C(F)(F)F)cc31)CCCCC2`: 7.55 µM. For `CN1C/C(=C/c2cccnc2)C(=O)/C(=C/c2cccnc2)C1` the value was 5.31 µM; for `COc1ccc(S(=O)(=O)Nc2ccc(O)c3ccccc23)cc1`, 9.07 µM; for `CN1CCN(C2=C(NS(=O)(=O)c3cccs3)C(=O)c3ccccc3C2=O)CC1`, 6.98 µM. For `O=C(Cn1cc(/C=C\[N+](=O)[O-])c2ccccc21)Nc1ccccc1`, the AC50 was 7.46 µM. The same measure for `COc1ccc(-c2nn(-c3ccccc3)cc2/C=N/N=C(N)N)cc1OC`: 14.6 µM; for `O=C(N/N=C\c1cc(Cl)ccc1O)c1ccc(S(=O)(=O)N2CCCCC2)cc1`: 2.81 µM; for `O=C(Cn1ncc(Cl)c(Cl)c1=O)Nc1ccc2c(c1)OCO2`: 13.2 µM. For `S=C=Nc1cccc(C2(N3CCCCC3)CCCCC2)c1` the value was 7.36 µM; for `CC1(C)Cc2ccccc2C2=NNC(=O)C2=N1`, 3.62 µM. The same measure for `CC1CCC(C(C)C)C(OC(=O)Cn2c(-c3ccccc3)[n+](C)c3ccccc32)C1` (configuration not stated): 2.37 µM; for `C#CC(=O)N(c1ccc(OC)c(OC)c1)C(C(=O)NC1CCCC1)c1cccs1` (configuration not stated): 3.31 µM. As to `O=[N+]([O-])c1cc(S(=O)(=O)N2CCCCCC2)ccc1F`, the AC50 is 9.53 µM. The same measure for `O=C1C(Nc2ccccc2)=C(N2CCCCC2)C(=O)c2ccccc21`: 6.67 µM. The same measure for `O=C(Nc1ccc(S(=O)(=O)N2CCCCCC2)cc1)c1[nH]ncc1[N+](=O)[O-]`: 4.02 µM. With `O=C(N/N=C/c1cc(Cl)ccc1O)c1ccncc1`, the AC50 was 8.98 µM.

Turning to `COc1ccc(C(=O)/C(C#N)=N/Nc2ccc([N+](=O)[O-])cc2)cc1`, the AC50 was 8.26 µM. For the compound `Cc1ccc(NC(=O)c2cc3ccccc3oc2=O)cc1S(=O)(=O)N(C)C`, the half-maximal activity concentration (AC50) was 0.03 µM. `O=C(Cn1ncc(Cl)c(Cl)c1=O)N1CCN(Cc2ccccc2)CC1`: the concentration at half-maximal activity (AC50) was 10.9 µM. The same measure for `COC(=O)C1=C(CN2CCCc3ccccc32)NC(=O)NC1c1ccc(F)cc1` (configuration not stated): 2.16 µM. For `CCCC(=O)NC(c1ccc(OC)c(OC)c1)c1cc(Cl)c2cccnc2c1O` (configuration not stated) the value was 9.06 µM. The same measure for `O=C(CCl)N(c1ccccc1)C1CCS(=O)(=O)C1` (configuration not stated): 9.35 µM.

Values taken from PubChem BioAssay AID493102 (Broad Institute, 2011).
